# Reference: US20110280862A1, “GEP AND DRUG TRANSPORTER REGULATION, CANCER THERAPY AND PROGNOSIS” (THE UNIVERSITY OF HONG KONG, priority 2010, published 2011)
# Read-outs that look alike come from different tables or passages of the source.
# Assays:
# Assay type in all cases: cell-based, Human
# Hep3B cells [1] = experiment: MTT assay, drug IC50, parental cells
# Method: (§1) Human liver cancer cell lines, Hep3B and HepG2, were purchased from American Type Culture Collection (Manassas, Va.). Culture method has been previously described, for example by Ho J C, et al. Hepatology 2008; 47: 1524-1532 and Cheung S T, et al. Clin Cancer Res 2004; 10: 7629-7636. Stable transfectants for GEP overexpression and suppression have also been described. For chemoresistant populations, the Hep3B cells were plated out and selected under various chemotherapeutic agents of various concentrations at 10-fold dilution for 30 days. The highest dose that still had viable cells over the extended selection period was used and the cells expanded for further selection. The one-step selected cells were then plated out again and selected under escalating doses of the respective drug in a 2-fold manner for another 30 days. The two-step selection process could select a population of cells more resistant to chemotherapeutic agents. The cells selected for resistance to doxorubicin were referred to as doxorubicin resistant cells. […] The drug IC50 value was determined by MTT assay. […] Apoptosis was determined by Annexin V-FITC (AV-FLI) and propidium iodide (PI-FL2) staining using flow cytometry. […] For doxorubicin uptake assays, cells were incubated with or without doxorubicin for 24 hours, and doxorubicin content (FL2) was analyzed by flow cytometry. […]
# [2] = test system: cisplatin resistant cells; experiment: MTT assay, drug IC50, cisplatin resistant cells
# Method: as §1
# [3] = test system: doxorubicin resistant cells; experiment: MTT assay, drug IC50, doxorubicin resistant cells
# Method: as §1
# [4] = test system: GEP overexpression transfectants; experiment: Doxorubicin uptake assay by flow cytometry; settings: doxorubicin 0.5 μg/ml, 24 hours, control or with ABCB5 suppression by siRNA
# Method: (§2) Human liver cancer cell lines, Hep3B and HepG2, were purchased from American Type Culture Collection (Manassas, Va.). Culture method has been previously described, for example by Ho J C, et al. Hepatology 2008; 47: 1524-1532 and Cheung S T, et al. Clin Cancer Res 2004; 10: 7629-7636. Stable transfectants for GEP overexpression and suppression have also been described. For chemoresistant populations, the Hep3B cells were plated out and selected under various chemotherapeutic agents of various concentrations at 10-fold dilution for 30 days. The highest dose that still had viable cells over the extended selection period was used and the cells expanded for further selection. The one-step selected cells were then plated out again and selected under escalating doses of the respective drug in a 2-fold manner for another 30 days. The two-step selection process could select a population of cells more resistant to chemotherapeutic agents. The cells selected for resistance to doxorubicin were referred to as doxorubicin resistant cells. Similarly, the cells selected under cisplatin were referred to as cisplatin resistant cells. The drug IC50 value was determined by MTT assay. For apoptosis assays, cells were incubated with or without chemotherapeutic agents for 24 to 48 hours. Apoptosis was determined by Annexin V-FITC (AV-FLI) and propidium iodide (PI-FL2) staining using flow cytometry. The total apoptotic population included the early apoptotic cells (high MFI of AV but low PI) plus the late apoptotic cells (high MFI of both AV and PI) of the scatter plot. […] For doxorubicin uptake assays, cells were incubated with or without doxorubicin for 24 hours, and doxorubicin content (FL2) was analyzed by flow cytometry. Pilot studies had examined treatment time-points 0, 1, 3, 6 and 24 hours, and the latter three time-points had similar data profiles. […] There was a time-dependent effect, and thus the data charts presented the data of the 24-hour treatment in comparison with the baseline data. […]
# Hep3B cells [5] = experiment: Doxorubicin uptake assay by flow cytometry; settings: doxorubicin 0.5 μg/ml, 24 hours, control or with ABCB5 suppression by siRNA
# Method: as §2
# [6] = test system: doxorubicin resistant cells; experiment: Doxorubicin uptake assay by flow cytometry; settings: doxorubicin 0.5 μg/ml, 24 hours, control or with ABCB5 suppression by siRNA
# Method: as §2
# [7] = test system: GEP overexpression transfectants; experiment: Apoptosis assay, Annexin V/PI flow cytometry; settings: doxorubicin 0.5 μg/ml, 24 hours, control or with ABCB5 suppression by siRNA
# Method: as §2
# Hep3B cells [8] = experiment: Apoptosis assay, Annexin V/PI flow cytometry; settings: doxorubicin 0.5 μg/ml, 24 hours, control or with ABCB5 suppression by siRNA
# Method: as §2
# [9] = test system: doxorubicin resistant cells; experiment: Apoptosis assay, Annexin V/PI flow cytometry; settings: doxorubicin 0.5 μg/ml, 24 hours, control or with ABCB5 suppression by siRNA
# Method: as §2
SMILES,IC50 (Hep3B cells [1]),increase in resistance compared to parental cells ([2]; cisplatin resistant cells vs parental cells),"IC50 ([2]; cisplatin resistant cells, MTT assay)","IC50 (Hep3B cells [1]; Homo sapiens, Hep3B, read-out: IC50)","IC50 ([3]; Homo sapiens, doxorubicin resistant cells, MTT assay)",increase in resistance compared to parental cells ([3]; doxorubicin resistant cells vs parental cells),population with doxorubicin uptake [4],population with doxorubicin uptake (Hep3B cells [5]),population with doxorubicin uptake [6],net increase in apoptotic populations [7],net increase in apoptotic populations (Hep3B cells [8]),net increase in apoptotic populations [9]
N.N.[Cl][Pt][Cl] [cisplatin],0.84 µg/mL,more than 10 folds,8.53 µg/mL,,,,,,,,,
COc1cccc2c1C(=O)c1c(O)c3c(c(O)c1C2=O)C[C@@](O)(C(=O)CO)C[C@@H]3O[C@H]1C[C@H](N)[C@H](O)[C@H](C)O1 [doxorubicin],,,,0.11 µg/mL,1.78 µg/mL,more than 16 folds,55.4%,76.4%,31.1%,11.3%,12.5%,7.7%
